Assay results as given in patent US7338959B2, “Diamino-pyrimidines and their use as angiogenesis inhibitors” (SmithKline Beecham Corporation, priority 2002, dated 2008).
Counter-ions that a name gives are not always drawn.

How the values were obtained:
[1] = molecular target: Recombinant GST-Tie2 (Homo sapiens, UniProt Q02763); test: Tie2 fluorescence polarization kinase activity assay (TIE2-FP); assay type: biochemical; conditions: activated Tie2, 200 μM ATP, peptide substrate
Experimental: Tie2 Fluorescence Polarization Kinase Activity Assay: (TIE2-FP)
Activation of Recombinant Tie2 Activation:
Recombinant GST-Tie2 was activated by incubating the enzyme in 20 mM Tris-HCl, pH 7.5, 12 mM MgCl2, 100 mM NaCl, 20 μM sodium vanidate, 1 mM DTT and 300 μM ATP at room temperature for 2 hours. The activation mixture was then passed through a NAP-25 desalting column (Pharmacia Biotech cat. no. 17-0852-02) to remove the free ATP. The activated enzyme was stored as aliquots at −80° C. in 20 mM Tris-HCl, pH 7.5 and 100 mM NaCl.
The final assay conditions were 50 mM HEPES, pH 7.5, 5% DMSO (when screening compounds), 200 μM ATP, 5 mM MgCl2, 1 mM DTT, 50 μM sodium vanidate, 1 nM activated enzyme, and 200 μM peptide. IC50's of compounds were measured under subsaturating ATP (200 μM) and varing concentrations of activated Tie2 and peptide substrate (RFWKYEFWR-OH; MW 1873 Da, TFA salt). Panvera Anti-phosphotyrosine antibody (Cat#P2840) and PTK Green Tracer (Cat#P2842) were used to detect the phosphorylated peptide. Polarization was measured on a TECAN Polarion in 138-second cycles for 30 minutes at room temperature. IC50's were then determined from the % polarization using normal calculation methods.

[2] = molecular target: T1, GST-VEGFR2 (Homo sapiens, UniProt P35968); test: VEGF-R2 enzyme assay (VEGF-E), LANCE method; assay type: biochemical; conditions: GST-VEGFR2, 75 uM ATP, biotinylated peptide
T1 construct: baculovirus expressed recombinant constructs of the intracellular domains of human TIE2 tagged by GST; made in house
From the text: VEGF-R2 Enzyme Assay (VEGF-E)
The VEGF enzyme assay used the LANCE method (Wallac) and GST-VEGFR2, baculovirus expressed recombinant constructs of the intracellular domains of human TIE2 tagged by GST. The method measured the ability of the purified enzymes to catalyse the transfer of the γ-phosphate from ATP onto tyrosine residues in a biotinylated synthetic peptide, (biotin-aminohexyl-EEEEYFELVAKKKK-NH2). This peptide phosphorylation was detected using the following procedure: GST-VEGFR2 was incubated for 40-60 mins at room temperature with 75 uM ATP, 5 mM MgCl2, 0.1 mM DTT, 0.1 mg/mL BSA and the test compound (diluted from a 10 mM stock in DMSO for desired concentration) in 100 mM HEPES buffer. The reaction was stopped by the addition of EDTA (final concentration 50 mM). Streptavidin linked-APC (allophycocyanin, Molecular Probe) and Europium-labeled anti-phosphorylated tyrosine antibody (Wallac) were then added at the final concentration of 15 nM and 1 nM, respectively. The APC signal was measured using an ARVO multilabel counter (Wallac Berthold, Japan). The percent inhibition of activity was calculated relative to blank control wells. The concentration of test compound that inhibits 50% of activity (IC50) was interpolated using nonlinear regression (Levernberg-Marquardt) and the equation, y=Vmax (1−x/(K+x))+Y2, where “K” was equal to the IC50. The IC50 values were converted to pIC50 values, i.e., −log IC50 in Molar concentration.

T1 sequence (P35968 786-1356 limits assumed): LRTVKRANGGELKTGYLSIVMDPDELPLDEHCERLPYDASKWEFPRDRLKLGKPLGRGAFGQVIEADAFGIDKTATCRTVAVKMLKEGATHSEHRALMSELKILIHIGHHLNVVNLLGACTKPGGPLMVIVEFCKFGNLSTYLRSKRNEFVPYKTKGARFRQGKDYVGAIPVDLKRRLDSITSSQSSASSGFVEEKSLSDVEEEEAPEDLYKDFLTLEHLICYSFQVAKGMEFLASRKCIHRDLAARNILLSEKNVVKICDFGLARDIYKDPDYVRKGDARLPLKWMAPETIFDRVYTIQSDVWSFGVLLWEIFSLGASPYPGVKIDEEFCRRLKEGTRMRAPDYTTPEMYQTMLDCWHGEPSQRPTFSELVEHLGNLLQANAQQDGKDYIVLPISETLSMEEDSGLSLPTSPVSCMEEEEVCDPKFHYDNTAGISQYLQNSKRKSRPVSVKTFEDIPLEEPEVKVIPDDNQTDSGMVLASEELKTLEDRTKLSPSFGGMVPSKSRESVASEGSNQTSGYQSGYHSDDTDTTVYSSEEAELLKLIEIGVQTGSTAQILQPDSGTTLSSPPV
Recombinant GST-Tie2, sequence (Q02763 23-1124): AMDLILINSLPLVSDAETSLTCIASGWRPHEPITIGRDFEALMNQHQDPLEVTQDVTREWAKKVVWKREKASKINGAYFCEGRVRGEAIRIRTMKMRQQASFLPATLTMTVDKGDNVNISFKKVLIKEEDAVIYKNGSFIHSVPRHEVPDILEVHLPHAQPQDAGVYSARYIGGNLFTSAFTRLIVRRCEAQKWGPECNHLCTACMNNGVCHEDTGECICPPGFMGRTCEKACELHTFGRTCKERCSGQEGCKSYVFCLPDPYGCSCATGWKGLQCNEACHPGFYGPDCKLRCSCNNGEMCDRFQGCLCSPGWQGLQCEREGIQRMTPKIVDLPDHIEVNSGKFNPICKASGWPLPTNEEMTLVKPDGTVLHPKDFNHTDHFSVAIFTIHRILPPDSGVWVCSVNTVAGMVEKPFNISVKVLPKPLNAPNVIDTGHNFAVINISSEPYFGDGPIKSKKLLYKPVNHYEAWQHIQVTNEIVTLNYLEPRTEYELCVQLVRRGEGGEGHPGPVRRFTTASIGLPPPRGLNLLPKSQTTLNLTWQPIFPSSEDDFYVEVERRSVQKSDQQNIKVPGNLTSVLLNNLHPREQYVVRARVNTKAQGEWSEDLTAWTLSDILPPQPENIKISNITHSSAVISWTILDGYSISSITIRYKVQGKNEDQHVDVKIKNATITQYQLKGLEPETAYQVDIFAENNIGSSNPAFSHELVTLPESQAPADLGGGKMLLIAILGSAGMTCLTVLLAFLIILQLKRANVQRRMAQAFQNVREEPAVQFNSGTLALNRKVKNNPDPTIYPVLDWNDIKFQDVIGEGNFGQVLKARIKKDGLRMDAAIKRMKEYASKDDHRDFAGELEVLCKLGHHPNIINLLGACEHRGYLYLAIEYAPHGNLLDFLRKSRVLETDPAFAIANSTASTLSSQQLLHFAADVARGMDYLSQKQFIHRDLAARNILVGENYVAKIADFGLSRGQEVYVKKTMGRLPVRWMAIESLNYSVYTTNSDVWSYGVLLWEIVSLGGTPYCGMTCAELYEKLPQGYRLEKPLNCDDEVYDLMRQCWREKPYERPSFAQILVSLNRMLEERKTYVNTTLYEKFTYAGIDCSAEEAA

Row | IC50 [1] | IC50 [2] | VEGF-E [2] | TIE2-FP [1] | Molecule
1 | 100 to 1000 nM | < 100 nM | – | – | CN(c1ccc2c(c1)nc(Nc1cccc(F)c1)n2C)c1ccnc(Nc2ccc(CS(C)(=O)=O)cc2)n1 [Example 118]
2 | – | < 100 nM | – | – | CN(c1ccc2c(c1)nc(NCc1ccc(F)cc1)n2C)c1ccnc(Nc2cccc(S(N)(=O)=O)c2)n1 [Example 11, 3-(4-{[2-(4-Fluoro-benzylamino)-1-methyl-1H-benzoimidazol-5-yl]-methyl-amino}-pyrimidin-2-ylamino)-benzenesulfonamide hydrochloride]
3 | – | – | ++ (++ = pIC50 of 6.0-7.0) | – | N-({[2-(3-methanesulfonylmethyl-phenylamino)-pyrimidin-4-yl]-methyl-amino}-methyl-1H-benzoimidazol-2-yl)-3,5-bis-trifluoromethyl-benzamide [Example 156]
4 | – | – | +++ (+++ = pIC50 of >7.0) | + (+ = pIC50 of 5.0-6.0) | Cc1cc(CC(=O)Nc2nc3cc(N(C)c4ccnc(Nc5ccc(CS(C)(=O)=O)cc5)n4)ccc3n2C)on1 [Example 173, N-({[2-(4-Methanesulfonylmethyl-phenylamino)-pyrimidin-4-yl]-methyl-amino}-methyl-1H-benzoimidazol-2-yl)-2-(3-methyl-isoxazol-5-yl)-acetamide]
5 | 1000 to 10000 nM | < 100 nM | – | – | CN(c1ccc2c(c1)nc(NC(=O)Cc1cccc(SC(F)(F)F)c1)n2C)c1ccnc(Nc2cccc(CS(C)(=O)=O)c2)n1 [Example 162, N-(5-{[2-(3-Methanesulfonylmethyl-phenylamino)-pyrimidin-4-yl]-methyl-amino}-1-methyl-1H-benzoimidazol-2-yl)-2-(3-trifluoromethylsulfanyl-phenyl)-acetamide]
6 | – | – | +++ (+++ = pIC50 of >7.0) | – | CN(c1ccc2c(c1)nc(NC(=O)C1CCCCC1)n2C)c1ccnc(Nc2cccc(CS(C)(=O)=O)c2)n1 [Example 157, Cyclohexanecarboxylic acid ({[2-(3-methanesulfonylmethyl-phenylamino)-pyrimidin-4-yl]-methyl-amino}-methyl-1H-benzoimidazol-2-yl)-amide]
7 | – | < 100 nM | – | – | COc1cccc(CC(=O)Nc2nc3cc(N(C)c4ccnc(Nc5ccc(CS(C)(=O)=O)cc5)n4)ccc3n2C)c1OC [Example 219, 2-(2,3-Dimethoxyphenyl)-N-(5-{[2-(4-methanesulfonylmethyl-phenylamino)-pyrimidin-4-yl]-methyl-amino}-1-methyl-1H-benzoimidazol-2-yl)-acetamide]
8 | – | < 100 nM | – | – | CN(c1ccc2c(c1)nc(NC(=O)Nc1ccccc1)n2C)c1ccnc(Nc2ccc(CS(C)(=O)=O)cc2)n1 [Example 142, N-(1-methyl-5-{methyl[2-({4-[(methylsulfonyl)methyl]phenyl}amino)pyrimidin-4-yl]amino}-1H-benzimidazol-2-yl)-N′-phenylurea]
9 | 1000 to 10000 nM | < 100 nM | – | – | Cn1c(Nc2cc(C(C)(C)C)on2)nc2cc(Nc3ccnc(Nc4cccc(CS(C)(=O)=O)c4)n3)ccc21 [Example 136, N^2-(5-tert-Butyl-isoxazol-3-yl)-N^5-[2-(3-methanesulfonylmethyl-phenylamino)-pyrimidin-4-yl]-1-methyl-1H-benzoimidazole-2,5-diamine]
10 | – | – | +++ (+++ = pIC50 of >7.0) | + (+ = pIC50 of 5.0-6.0) | Thiophene-2-carboxylic acid ({[2-(3-methanesulfonylmethyl-phenylamino)-pyrimidin-4-yl]-methyl-amino}-methyl-1H-benzoimidazol-2-yl)-amide [Example 167]
11 | – | < 100 nM | – | – | CN(c1ccc2c(c1)nc(NC(=O)Cc1ccccc1)n2C)c1ccnc(Nc2ccc(CS(C)(=O)=O)cc2)n1 [Example 202, Phenyl-N-({[2-(4-methanesulfonylmethyl-phenylamino)-pyrimidin-4-yl]-methyl-amino}-methyl-1H-benzoimidazol-2-yl)-acetamide]
12 | 1000 to 10000 nM | < 100 nM | – | – | CN(c1ccc2c(c1)nc(NC(=O)Cc1cccc(F)c1F)n2C)c1ccnc(Nc2ccc(CS(C)(=O)=O)cc2)n1 [Example 226, (2,3-Difluorophenyl)-N-({[2-(4-methanesulfonylmethyl-phenylamino)-pyrimidin-4-yl]-methyl-amino}-methyl-1H-benzoimidazol-2-yl)-acetamide]
13 | 1000 to 10000 nM | 100 to 1000 nM | – | – | CN(c1ccc2c(c1)nc(NC(=O)C1(c3cc(F)ccc3F)CC1)n2C)c1ccnc(Nc2ccc(CS(C)(=O)=O)cc2)n1 [Example 204, 1-(2,5-Difluoro-phenyl)-cyclopropanecarboxylic acid ({[2-(4-methanesulfonylmethyl-phenylamino)-pyrimidin-4-yl]-methyl-amino}-methyl-1H-benzoimidazol-2-yl)-amide]
14 | 1000 to 10000 nM | 100 to 1000 nM | – | – | CC(C)Nc1nc2cc(N(C)c3ccnc(Nc4cccc(OS(C)(=O)=O)c4)n3)ccc2n1C [Example 92, hydrochloride]
15 | < 100 nM | < 100 nM | – | – | CN(c1ccc2c(c1)nc(Nc1cc(C(F)(F)F)ccc1F)n2C)c1ccnc(Nc2ccc(CS(C)(=O)=O)cc2)n1 [Example 125]
16 | 1000 to 10000 nM | < 100 nM | – | – | CN(c1ccc2c(c1)nc(NC(=O)Cc1ccc(F)cc1)n2C)c1ccnc(Nc2ccc(CS(C)(=O)=O)cc2)n1 [Example 206, 2-(4-Fluoro-phenyl)-N-({[2-(4-methanesulfonylmethyl-phenylamino)-pyrimidin-4-yl]-methyl-amino}-methyl-1H-benzoimidazol-2-yl)-acetamide]
17 | – | 100 to 1000 nM | – | – | CN(c1ccc2c(c1)nc(NC(=O)Cc1ccc3c(c1)OCO3)n2C)c1ccnc(Nc2ccc(CS(C)(=O)=O)cc2)n1 [Example 239, Benzo[1,3]dioxol-5-yl-N-({[2-(4-methanesulfonylmethyl-phenylamino)-pyrimidin-4-yl]-methyl-amino}-methyl-1H-benzoimidazol-2-yl)-acetamide]
18 | 1000 to 10000 nM | < 100 nM | – | – | CN(c1ccc2c(c1)nc(NC(=O)Cc1cccs1)n2C)c1ccnc(Nc2cccc(CS(C)(=O)=O)c2)n1 [Example 169, N-({[2-(3-Methanesulfonylmethyl-phenylamino)-pyrimidin-4-yl]-methyl-amino}-methyl-1H-benzoimidazol-2-yl)-C-thiophen-2-yl-acetamide]
19 | – | < 100 nM | – | – | CNS(=O)(=O)CCc1ccc(Nc2nccc(N(C)c3ccc4c(c3)nc(NC(C)C)n4C)n2)cc1 [Example 90, 2-(4-{4-[(2-Isopropylamino-1-methyl-1H-benzoimidazol-5-yl)-methyl-amino]-pyrimidin-2-ylamino}-phenyl)-ethanesulfonic acid methylamide hydrochloride]
20 | – | – | +++ (+++ = pIC50 of >7.0) | + (+ = pIC50 of 5.0-6.0) | Cn1c(Nc2cc(C(C)(C)C)on2)nc2cc(Nc3ccnc(Nc4ccc(CS(C)(=O)=O)cc4)n3)ccc21.O=C(O)C(F)(F)F [Example 135, N^2-(5-tert-Butyl-isoxazol-3-yl)-N^5-[2-(4-methanesulfonylmethyl-phenylamino)-pyrimidin-4-yl]-1-methyl-1-1H-benzoimidazole-2,5-diamine trifluoroacetate]
21 | 100 to 1000 nM | < 100 nM | – | – | Cc1ccc(Nc2nccc(N(C)c3ccc4c(c3)nc(NCCc3ccccc3)n4C)n2)cc1S(N)(=O)=O [Example 95, 2-Methyl-5-{4-[methyl-(1-methyl-2-phenethylamino-1H-benzoimidazol-5-yl)-amino]-pyrimidin-2-ylamino}-benzenesulfonamide hydrochloride]
22 | < 100 nM | < 100 nM | – | – | CN(c1ccc2c(c1)nc(Nc1ccc(Cl)cc1)n2C)c1ccnc(Nc2ccc(CS(C)(=O)=O)cc2)n1 [Example 112]
23 | 100 to 1000 nM | < 100 nM | – | – | CN(c1ccc2c(c1)nc(Nc1ccccc1F)n2C)c1ccnc(Nc2ccc(CS(C)(=O)=O)cc2)n1 [Example 124]
24 | – | – | +++ (+++ = pIC50 of >7.0) | + (+ = pIC50 of 5.0-6.0) | N-({[2-(4-Methanesulfonylmethyl-phenylamino)-pyrimidin-4-yl]-methyl-amino}-methyl-1H-benzoimidazol-2-yl)-dimethyl-butyramide [Example 177]
